US20250034216A1, “STEREOSELECTIVE COVALENT LIGANDS FOR ONCOGENIC AND IMMUNOLOGICAL PROTEINS” (The Scripps Research Institute, priority 2021, published 2025)

Columns and labels:
Assay in all cases: IA-DTB cysteine engagement
Type in all cases: binding
Details in all cases: 22Rv1 cells, 20 μM probe, 1 h, relative to DMSO
DHX9_C608 = target: T1, DHX9_C608 (Homo sapiens, UniProt Q08211)
T1 construct: endogenous in cells; host or cells: 22Rv1
Outline: (§1)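 First, cells are exposed to electrophilic probes in situ. Next, lysates are labeled with IA-DTB (1 h, ambient temperature), reduced, alkylated and trypsin-digested. Then, IA-DTB peptides are enriched on streptavidin, TMT-labeled and analyzed, with ratios taken against DMSO channels.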

NT5DC1_C119 = target: T2, NT5DC1_C119 (Homo sapiens, UniProt Q5TFE4)
T2 construct: endogenous in cells; host or cells: 22Rv1
T2 sequence (Q5TFE4 1-455): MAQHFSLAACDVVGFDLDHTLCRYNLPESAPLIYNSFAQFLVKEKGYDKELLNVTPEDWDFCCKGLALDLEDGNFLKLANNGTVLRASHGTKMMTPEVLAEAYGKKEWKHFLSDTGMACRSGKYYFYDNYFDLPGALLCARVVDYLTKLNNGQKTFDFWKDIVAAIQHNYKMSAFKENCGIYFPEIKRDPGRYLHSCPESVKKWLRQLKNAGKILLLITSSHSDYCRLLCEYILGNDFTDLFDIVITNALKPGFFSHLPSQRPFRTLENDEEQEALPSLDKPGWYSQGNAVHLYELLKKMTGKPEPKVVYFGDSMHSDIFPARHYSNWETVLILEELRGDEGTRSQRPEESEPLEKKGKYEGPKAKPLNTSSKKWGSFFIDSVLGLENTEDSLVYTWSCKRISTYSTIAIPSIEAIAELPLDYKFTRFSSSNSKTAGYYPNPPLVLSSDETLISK
Outline: as §1

STK11_C418 = target: T3, STK11_C418 (Homo sapiens, UniProt Q15831)
T3 construct: endogenous in cells; host or cells: 22Rv1
T3 sequence (Q15831 1-433): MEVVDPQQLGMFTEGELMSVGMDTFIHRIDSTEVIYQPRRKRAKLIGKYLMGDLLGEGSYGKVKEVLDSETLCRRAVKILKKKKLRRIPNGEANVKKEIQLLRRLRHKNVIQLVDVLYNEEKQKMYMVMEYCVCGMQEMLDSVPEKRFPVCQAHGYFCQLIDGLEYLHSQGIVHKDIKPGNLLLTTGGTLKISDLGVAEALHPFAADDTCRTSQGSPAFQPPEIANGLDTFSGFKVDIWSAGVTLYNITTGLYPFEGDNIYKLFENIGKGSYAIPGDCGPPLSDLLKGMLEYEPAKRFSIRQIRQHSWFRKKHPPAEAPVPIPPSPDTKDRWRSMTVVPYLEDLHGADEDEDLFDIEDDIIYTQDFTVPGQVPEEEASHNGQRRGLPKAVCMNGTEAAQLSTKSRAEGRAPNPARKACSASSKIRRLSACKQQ
Outline: as §1

LRPPRC_C571 = target: T4, LRPPRC_C571 (Homo sapiens, UniProt P42704)
T4 construct: endogenous in cells; host or cells: 22Rv1
Outline: as §1

T1 sequence (Q08211 whole entry): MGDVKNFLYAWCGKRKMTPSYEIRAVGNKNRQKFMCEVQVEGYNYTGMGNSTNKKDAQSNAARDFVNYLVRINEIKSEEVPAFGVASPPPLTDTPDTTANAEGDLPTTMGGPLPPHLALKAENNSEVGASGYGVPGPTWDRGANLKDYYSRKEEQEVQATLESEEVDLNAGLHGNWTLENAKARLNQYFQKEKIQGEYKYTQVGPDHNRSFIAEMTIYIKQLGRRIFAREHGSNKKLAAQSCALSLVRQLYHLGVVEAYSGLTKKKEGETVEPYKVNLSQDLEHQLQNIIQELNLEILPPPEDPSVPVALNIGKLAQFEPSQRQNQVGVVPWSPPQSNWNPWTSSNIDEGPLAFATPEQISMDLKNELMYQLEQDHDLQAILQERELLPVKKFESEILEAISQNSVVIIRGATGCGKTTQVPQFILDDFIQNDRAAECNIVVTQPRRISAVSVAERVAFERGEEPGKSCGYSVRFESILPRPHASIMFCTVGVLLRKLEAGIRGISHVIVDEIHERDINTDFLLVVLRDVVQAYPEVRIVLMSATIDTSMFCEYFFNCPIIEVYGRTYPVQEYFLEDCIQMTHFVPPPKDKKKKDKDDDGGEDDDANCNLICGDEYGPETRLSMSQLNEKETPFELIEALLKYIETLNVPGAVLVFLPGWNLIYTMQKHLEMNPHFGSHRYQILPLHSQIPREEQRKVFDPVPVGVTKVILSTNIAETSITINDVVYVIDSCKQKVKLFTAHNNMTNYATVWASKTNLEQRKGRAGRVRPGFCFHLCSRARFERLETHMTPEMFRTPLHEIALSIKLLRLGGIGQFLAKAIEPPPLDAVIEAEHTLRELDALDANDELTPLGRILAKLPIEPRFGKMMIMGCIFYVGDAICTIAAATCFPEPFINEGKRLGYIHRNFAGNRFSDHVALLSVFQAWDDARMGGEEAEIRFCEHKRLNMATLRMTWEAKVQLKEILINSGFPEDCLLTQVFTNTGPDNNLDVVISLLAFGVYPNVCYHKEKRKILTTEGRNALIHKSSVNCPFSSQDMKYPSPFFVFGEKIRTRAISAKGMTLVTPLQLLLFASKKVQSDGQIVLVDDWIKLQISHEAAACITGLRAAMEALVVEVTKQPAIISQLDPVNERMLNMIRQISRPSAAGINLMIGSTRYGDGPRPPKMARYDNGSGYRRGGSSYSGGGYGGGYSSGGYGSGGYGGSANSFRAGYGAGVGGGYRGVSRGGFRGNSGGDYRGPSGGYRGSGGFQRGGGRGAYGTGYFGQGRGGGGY

| % engagement DHX9_C608 (DHX9_C608) | % engagement NT5DC1_C119 (NT5DC1_C119) | % engagement STK11_C418 (STK11_C418) | % engagement LRPPRC_C571 (LRPPRC_C571) | SMILES |
| --- | --- | --- | --- | --- |
| −10.5% | 49% | 83.5% | 73.5% | C=CC(=O)N1C[C@@H](c2ccc(Br)cc2)[C@H]1C(=O)Nc1cccc2cccnc12 [MY-1A, (2S,3R)-1-acryloyl-3-(4-bromophenyl)-N-(quinolin-8-yl)azetidine-2-carboxamide] |
| −11% | 63.25% | 66.5% | 7% | C=CC(=O)N1C[C@H](c2ccc(Br)cc2)[C@@H]1C(=O)Nc1cccc2cccnc12 [MY-1B, (2R,3S)-1-acryloyl-3-(4-bromophenyl)-N-(quinolin-8-yl)azetidine-2-carboxamide] |
| 69.5% | 79.5% | 61.5% | 5% | C=CC(=O)N1C[C@H](c2ccc(Br)cc2)[C@H]1C(=O)Nc1cccc2cccnc12 [MY-3B, (2S,3S)-1-acryloyl-3-(4-bromophenyl)-N-(quinolin-8-yl)azetidine-2-carboxamide] |
| 16% | 93.5% | 38% | 20% | C=CC(=O)N1C[C@H](c2ccc(Br)cc2)[C@H]1C(=O)Nc1cccc2cccnc12 [MY-3A, (2S,3S)-1-acryloyl-3-(4-bromophenyl)-N-(quinolin-8-yl)azetidine-2-carboxamide] |
